Laboratory results taken from publication PMC9643865, “Bromo-protopine, a novel protopine derivative, alleviates tau pathology by activating chaperone-mediated autophagy for Alzheimer’s disease therapy” (Frontiers in Molecular Biosciences, 2022).

Tests used:
HDAC6 = target: T1, HDAC6 (Homo sapiens, UniProt Q9UBN7); assay: HDAC6 deacetylase fluorometric assay with pure HDAC6 protein; format: biochemical; conditions: read-out: 50% inhibitory concentration (IC50) on HDAC6 activity
T1 construct: purchased Enzo Life Sciences BML-AK516
T1 sequence (Q9UBN7 1-1215): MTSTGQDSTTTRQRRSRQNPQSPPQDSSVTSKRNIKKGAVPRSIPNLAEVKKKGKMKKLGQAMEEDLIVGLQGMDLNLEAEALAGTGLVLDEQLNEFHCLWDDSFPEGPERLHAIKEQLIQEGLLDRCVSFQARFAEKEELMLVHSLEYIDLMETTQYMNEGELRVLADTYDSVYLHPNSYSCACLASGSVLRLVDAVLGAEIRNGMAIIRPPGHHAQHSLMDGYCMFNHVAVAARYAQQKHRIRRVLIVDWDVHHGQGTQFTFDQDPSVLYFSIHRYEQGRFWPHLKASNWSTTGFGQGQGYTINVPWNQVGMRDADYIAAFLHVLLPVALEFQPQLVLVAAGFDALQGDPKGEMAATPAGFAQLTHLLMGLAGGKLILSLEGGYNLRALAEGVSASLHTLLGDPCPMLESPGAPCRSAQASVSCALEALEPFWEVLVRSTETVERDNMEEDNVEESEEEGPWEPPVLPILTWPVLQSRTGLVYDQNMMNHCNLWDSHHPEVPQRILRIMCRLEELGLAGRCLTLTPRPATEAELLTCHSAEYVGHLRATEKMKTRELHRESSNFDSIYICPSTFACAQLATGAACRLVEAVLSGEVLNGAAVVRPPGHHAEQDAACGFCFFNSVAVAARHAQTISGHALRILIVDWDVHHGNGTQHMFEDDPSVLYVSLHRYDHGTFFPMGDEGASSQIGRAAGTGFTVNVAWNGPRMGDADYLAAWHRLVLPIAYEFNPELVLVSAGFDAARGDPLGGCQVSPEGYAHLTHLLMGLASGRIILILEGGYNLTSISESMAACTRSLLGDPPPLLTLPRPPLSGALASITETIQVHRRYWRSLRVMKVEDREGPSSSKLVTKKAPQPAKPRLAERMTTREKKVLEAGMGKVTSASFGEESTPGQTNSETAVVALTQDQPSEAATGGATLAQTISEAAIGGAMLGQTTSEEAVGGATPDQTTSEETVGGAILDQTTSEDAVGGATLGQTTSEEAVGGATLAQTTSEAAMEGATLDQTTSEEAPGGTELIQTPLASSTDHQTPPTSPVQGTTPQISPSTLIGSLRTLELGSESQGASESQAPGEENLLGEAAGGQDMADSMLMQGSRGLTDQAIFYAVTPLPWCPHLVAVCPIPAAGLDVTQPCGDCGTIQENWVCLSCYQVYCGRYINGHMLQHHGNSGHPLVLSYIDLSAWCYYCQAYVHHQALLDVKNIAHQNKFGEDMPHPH
Procedure: Inhibition of HDAC6 activity was performed in accordance with the manufacturer’s protocol. Briefly, PRO-Br at various concentrations in HDAC Assay buffer II were prepared. The appropriate substrate solution provided in the kit was added, and the reaction plate was incubated at 37°C. The reaction was stopped by the addition of Developer II, and the fluorometric reading was measured at 440 nm using a fluorometer (Wallac EnVision).
HDAC6 is a cytoplasmic deacetylase that targets key proteins such as α-tubulin and HSP90. […] Therefore, inhibition of HDAC6 activity could be a promising therapeutic strategy for AD. […] To determine the binding of PRO/PRO-Br to HDAC6, we used molecular docking, and the binding affinity was determined from the binding free energies (Kcal/mol). From the docking study, the binding free energy of PRO-Br and PRO with HDAC6 was calculated to be −8.4 kcal/mol and −8.1 kcal/mol (Figures 5C–F), respectively.

HT22 cells = assay: LAMP2A / HSC70 immunocytochemistry and immunoblotting; format: cell-based, mouse; conditions: immunocytochemistry, 12.5 and 25 μM, 24 h
Procedure: SHSY5Y cells stably-expressing mutant tau (SHSYP301L) were cultured in DMEM/F12 + 15% FBS, 3 μg/ml Blasticidin S HCl, and 1X PSN. N2A mouse neuroblastoma and mouse hippocampal neuronal (HT22) cells were cultured in DMEM+10% FBS, and 1X PSN. Sterile complete medium containing PRO-Br was added to the cells, and they were then incubated for 24 h at an optimum temperature of 37°C in a sterile 5% CO2 incubator.
After PRO-Br treatment, cells were solubilised using cold RIPA lysis buffer (9803, Life Technologies), containing protease and phosphatase inhibitor tablets. Cells were sonicated and centrifuged at 14000 rpm for 15 min. Total protein concentration was determined by BCA protein assay, and the samples were separated on SDS-PAGE and transferred to PVDF membranes. The membranes were blocked, washed, and incubated with primary antibodies (Table 1), and incubated at 4°C, overnight. The membranes were further incubated with the required dilutions of secondary antibody for 1 h, at RT. The chemiluminescent signals were captured using x-ray film in a darkroom, with an appropriate chemiluminescent substrate kit (ThermoFisher Scientific, United States). Films were scanned, and the relative intensities of the signals were analyzed using ImageJ software.
HT22 cells were cultured in sterile 24-well culture dishes containing 14 mm cover-glass. Cells were treated with PRO-Br (12.5 and 25 μM), and DMSO (0.1%), for 24 h. Cells were fixed with paraformaldehyde (4%), permeabilized with triton-X-100 (0.1%), and blocked with BSA (2%). LAMP2A antibody (1:500), and HSC70 antibody (1:500) was added to the processed cells and incubated overnight at four°C. Alexa Fluor® 488 (green) and Alexa Fluor® 594 (red) secondary antibodies (1:400) were added and incubated for 1.5 h at room temperature. FluorSave reagent (Merck Millipore, United States) was added, then cover-slipped, and images were captured by a Leica confocal imaging system.

- IC50 (HDAC6): 2360 nM
Compound: CN1CCc2cc3c(cc2C(=O)Cc2ccc4c(c2C1)OCO4)OCO3 [PRO, Protopine]
- expression of LAMP2A (HT22 cells): did not enhance LAMP2A protein expression
